Assay results from patent publication US8153686B2 (Theravance, Inc., priority 2008, dated 2012).
Read-outs that look alike come from different tables or passages of the source.

What was measured:
human mu opioid receptor [1] = target: T1, human mu opioid receptor (Homo sapiens, UniProt P35372); test: Radioligand binding assay, human mu opioid receptor
[2] = system: loperamide-induced delayed gastric emptying; test: Rat gastric emptying assay (reversal of loperamide-induced delayed gastric emptying); type: in vivo; conditions: administered orally, loperamide 1 mg/kg s.c., gastric emptying model
Method: Assay 3: Rat Model of In Vivo Efficacy In this assay the efficacy of test compounds was evaluated in a model of gastrointestinal transit, which evaluates peripheral activity. This study was approved by the Institutional Animal Care and Use Committee at […]. and conformed to the Guide for the Care and Use of Laboratory Animals published by the National Academy of Sciences (©1996). a. Rat Gastric Emptying Assay Test compounds were evaluated in the rat gastric emptying assay to determine their ability to reverse loperamide-induced delayed gastric emptying. Rats were fasted up overnight prior to administration of test compounds or vehicle by intravenous, subcutaneous, intramuscular or oral routes of administration at doses ranging from 0.001 to about 30 milligrams/kilogram (mg/kg). The administration of test compound was followed by subcutaneous administration of loperamide at a dose of 1 mg/kg or vehicle. Five minutes post loperamide or vehicle administration, a non-nutritive, non-absorbable charcoal meal was administered via oral gavage and animals were allowed free access to water for the sixty minute duration of the experiment. Animals were then euthanized via carbon dioxide asphyxiation followed by thoracotomy and the stomach was carefully excised. The stomach was ligated at the lower esophageal sphincter and the pyloric sphincter to prevent additional emptying during tissue removal. Gastric weight was then determined after removal of the ligatures. b. Data Analysis and Results Data was analyzed using the GraphPad Prism Software package (GraphPad Software, Inc., San Diego, Calif.). Percent reversal curves were constructed by non-linear regression analysis using the sigmoidal dose response (variable slope) model and best-fit ID50 values were calculated. Curve minima and maxima were fixed to loperamide control values (indicating 0% reversal) and vehicle controls (indicating 100% reversal), respectively. Results are expressed as ID50, the dose required for 50% reversal of the effects of loperamide, in milligrams per kilogram.

human mu opioid receptor [3] = target: T1, human mu opioid receptor; test: Human mu [35S]GTPγS nucleotide exchange assay (agonist mediated activation); type: biochemical; conditions: read-out: intrinsic activity (IA)
[4] = displacement of [3H]-Diprenorphine 0.5 nM, CHO-K1 cell membranes, read-out: pKi at the human mu opioid receptor (converted)
[5] = bound [35S]GTPγS relative to DAMGO (IA=100), CHO-K1 membranes expressing human mu opioid receptor

T1 sequence (P35372 whole entry): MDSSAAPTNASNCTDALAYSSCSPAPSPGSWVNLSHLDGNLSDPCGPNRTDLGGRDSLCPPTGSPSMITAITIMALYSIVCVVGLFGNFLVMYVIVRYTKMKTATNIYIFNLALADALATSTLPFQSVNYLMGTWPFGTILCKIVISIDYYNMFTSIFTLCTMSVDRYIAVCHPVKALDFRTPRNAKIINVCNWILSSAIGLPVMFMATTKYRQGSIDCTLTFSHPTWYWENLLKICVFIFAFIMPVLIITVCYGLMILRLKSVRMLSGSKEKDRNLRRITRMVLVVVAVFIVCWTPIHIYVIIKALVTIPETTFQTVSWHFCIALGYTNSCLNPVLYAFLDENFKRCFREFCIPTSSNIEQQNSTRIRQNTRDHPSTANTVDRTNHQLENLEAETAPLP

Row | Ki (human mu opioid receptor [1]; [4]) | Emax (human mu opioid receptor [3]; [5]) | Compound | ID50, dose required for 50% reversal of the effects of loperamide [2] | Ki (human mu opioid receptor [1]) | Emax (human mu opioid receptor [3])
1 | 0.0631 nM | – | CO[C@H]1Cc2ccc(C(N)=O)cc2C(C)(C)[C@@H]1NCCCNC(=O)CC(C)(C)C [Example 12, (6S,7S)-7-[3-(3,3-Dimethyl-butyrylamino)-propylamino]-6-methoxy-8,8-dimethyl-5,6,7,8-tetrahydro-naphthalene-2-carboxylic acid amide] | 0.11 mg/kg | – | –
2 | 0.158 nM | 10% | CO[C@@H]1Cc2ccc(C(N)=O)cc2C(C)(C)[C@H]1NCCCNC(=O)C1CCCCC1 (relative stereo) [Example 1, trans-7-[3-(Cyclohexanecarbonyl-amino)-propylamino]-6-methoxy-8,8-dimethyl-5,6,7,8-tetrahydro-naphthalene-2-carboxylic acid amide] | 0.5 mg/kg | – | –
3 | – | – | COC1Cc2ccc(C(N)=O)cc2C(C)(C)C1NC[C@H](N)Cc1ccccc1 (single isomer, unassigned) [Example 8] | – | 1.58 nM | -7%
4 | 0.126 nM | -2% | CO[C@@H]1Cc2ccc(C(N)=O)cc2C(C)(C)[C@H]1NCCCNC(=O)c1ccccc1 (relative stereo) [Example 16, trans-7-(3-Benzoylamino-propylamino)-6-methoxy-8,8-dimethyl-5,6,7,8-tetrahydro-naphthalene-2-carboxylic acid amide] | 0.63 mg/kg | – | –
5 | 0.2 nM | 1% | CO[C@@H]1Cc2ccc(C(N)=O)cc2C(C)(C)[C@H]1NCCCNC(=O)CC(C)(C)C (relative stereo) [Example 11, trans-7-[3-(3,3-Dimethyl-butyrylamino)-propylamino]-6-methoxy-8,8-dimethyl-5,6,7,8-tetrahydro-naphthalene-2-carboxylic acid amide] | 0.4 mg/kg | – | –
